# Results: patent US20040023884A1, “Biologically active peptides from functional domains of bactericidal/permeability-increasing protein and uses thereof” (priority 1993, published 2004)
# “Also recorded” adds a separate entry of the source. Ends that are not written are not given here.
# Experiments:
# Candida albicans = format: cell-based; conditions: broth assay, FIGS. 11p and 11q
# Protocol: In additional experiments, broth antibacterial assays were conducted to further determine the bactericidal activity of certain of the BPI peptides. Specifically, either E. coli J5 (rough) or E. coli 0111:B4 (smooth) bacteria were selected from single colonies on agar plates and used to inoculate 5 mL of Mueller Hinton broth and incubated overnight at 37° C. with shaking. The overnight culture was diluted (˜1:50) into 5 mL fresh broth and incubated at 37° C. to log phase (˜3 hours). Bacteria were pelleted for 5 minutes at 3000 rpm (1500×g). Bacterial pellets were resuspended in 5 mL PBS and diluted to 2×10^6 cells/mL in the Mueller Hinton broth (wherein 1 OD570 unit equals 1.25×10^9 CFU/mL). The BPI functional domain peptides to be tested were diluted to 200 μg/mL in broth and serially diluted 2-fold in 96 well culture plates (100 μL volume). All items were at 2-fold final concentration and experiments were conducted in triplicate. Bacteria were added at 100 μL/well and the plates were incubated on a shaker at 37° C. for a 20 hour period. The plates were then read on an ELISA plate multiple reader at 590 nm. One of the triplicate wells from each peptide concentration was selected for colony forming unit (CFU) determination. A 30 μL aliquot was added to 270 μL of PBS and further ten-fold serial dilutions were performed. Then a 50 μL aliquot was plated on tryptic soy agar and incubated overnight. Colonies were counted and final bacterial concentrations determined. The results of these assays are depicted in FIGS. 9e (for E. coli J5) and 9f (for E. coli 0111:B4).
# In light of the results of the experiments disclosed in Example 15, the bactericidal activity of domain II-domain III combination peptides were compared with the bactericidal activity of each of the component BPI domain II and domain III peptides, against a number of different bacteria and other microorganisms. The following BPI functional domain peptides as described above were used in radial diffusion bactericidal assays (Example 2) and broth bactericidal assays (Example 13) essentially as described in Example 15 above. These Figures show results of bactericidal assays using the following bacterial strains: […]
# [1] = In vitro heparin-mediated lengthening of APTT / clotting time of heparinized plasma; format: biochemical, human; conditions: for effect on the clotting time of heparinized blood (in words): FIG. 12g; for effect on heparin-mediated lengthening of APTT (in words): citrated human plasma, 25 μg/mL heparin, 0.0 to 56 μg/mL
# In short: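 Citrated human plasma preincubated 1 min at 37° C with diluent (0.15 M NaCl, 0.1 M Tris-HCl, pH 7.4), with or without 25 μg/mL heparin. Compound added at 0.0 to 56 μg/mL, immediately followed by thrombin reagent. Clotting (thrombin) time measured by fibrometer.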
# [2] = system: zymosan-stimulated NO production by RAW 264.7 cells; test: Zymosan-stimulated NO production by RAW 264.7 cells; format: cell-based, mouse
# Protocol: An additional LPS neutralization screening assay for BPI functional domain peptides was developed using an assay for NO production in mouse cells treated with LPS (see Lorsbach et al., 1993, J. Biol. Chem. 268: 1908-1913). In this assay, mouse RAW 264.7 cells (ATCC Accession No. TIB71) were treated with bacterial LPS. The cells were incubated in 96-well plates and stimulated for 2 hours with E. coli 0113 LPS or zymosan, in the presence or absence of _-interferon, rLBP, fetal bovine serum (FBS) or normal human serum (NHS), or rBPI21Δcys. After this incubation, the cells were washed with fresh media and incubated overnight in media containing 10% FCS. The NO released from the cells accumulated in the media and spontaneously converted to nitrite. This nitrite was assayed in situ by the Griess reaction, as follows. The nitrite was reacted with the primary amine of an added sulfanilamide and formed a diazonium salt. This salt was then reacted with added naphthylethylenediamine to form a red azo-dyc. The Griess reaction was performed at room temperature in about 10 minutes. The amount of produced NO was estimated from a standard curve of Griess reaction products determined spectrophotometrically as Absorbance at a wavelength of 550 nm.
# C. albicans = test: Radial diffusion fungicidal assay, Candida albicans; format: cell-based; conditions: radial diffusion
# [3] = system: LPS-stimulated NO production by RAW 264.7 cells; test: LPS-stimulated NO production by RAW 264.7 cells; format: cell-based, mouse; conditions: for IC50 NO assay: LPS-stimulated NO production by RAW 264.7 cells
# In short: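 Mouse RAW 264.7 cells stimulated 2 h with E. coli 0113 LPS or zymosan, with or without γ-interferon, rLBP, FBS, NHS or rBPI21Δcys, then washed and cultured overnight in 10% FCS medium. Nitrite in the medium measured by Griess reaction at 550 nm; NO estimated from a standard curve.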
substance,measurement,setting,value
IKISGKWKAQKRFLK [BPI.2],fungicidal activity (in words),Candida albicans,much lower activity levels
same,effect on the clotting time of heparinized blood (in words),[1],less of a decrease in clotting times
same,inhibition of zymosan-stimulated NO production (in words),[2],not inhibited
KSKVGWLIQLFHKK-NH2 (C-terminus assumed) [BPI.13],fungicidal activity (in words),Candida albicans,found to have fungicidal activity
same,C. albicans: pmol required for 30 mm^2 zone,C. albicans,221.63 pmol
same,inhibition of LPS-stimulated NO production (in words),[3],detectable levels of LPS neutralization
same,IC50 NO assay,[3],16 µg/mL
KSKVGWLIQLFHKKKSKVGWLIQLFHKK-NH2 (C-terminus assumed) [BPI.29],fungicidal activity (in words),Candida albicans,much lower activity levels
same,C. albicans: pmol required for 30 mm^2 zone,C. albicans,>1469.25 pmol
same,effect on the clotting time of heparinized blood (in words),[1],greatest effect
same,effect on heparin-mediated lengthening of APTT (in words),[1],inhibit the heparin-mediated lengthening of APTT
same,inhibition of LPS-stimulated NO production (in words),[3],detectable levels of LPS neutralization
same,IC50 NO assay,[3],2.4 µg/mL
KWKAAARFLKKWKAAARFLK [BPI.48],fungicidal activity (in words),Candida albicans,much lower activity levels
KWKAQKRFLKKSKVGWLIQLFHKK-NH2 (C-terminus assumed) [BPI.30],fungicidal activity (in words),Candida albicans,much lower activity levels
same,C. albicans: pmol required for 30 mm^2 zone,C. albicans,>1653.50 pmol
same,effect on the clotting time of heparinized blood (in words),[1],greatest effect
same,effect on heparin-mediated lengthening of APTT (in words),[1],inhibit the heparin-mediated lengthening of APTT
same,inhibition of LPS-stimulated NO production (in words),[3],detectable levels of LPS neutralization
same,inhibition of zymosan-stimulated NO production (in words),[2],inhibited by BPI.30 at high (—100 μg/mL) concentrations
KWKAQKRFLKKWKAQKRFLK-NH2 (C-terminus assumed) [BPI.7],effect on the clotting time of heparinized blood (in words),[1],greatest effect; also recorded: less of a decrease in clotting times
same,IC50 NO assay,[3],Not Inhibitory
same,inhibition of zymosan-stimulated NO production (in words),[2],small amount of inhibition by BPI.7 at high concentrations
NVGLKFSISNANIKISGKWKAQKRFLK [BPI.3],effect on the clotting time of heparinized blood (in words),[1],smaller effect
same,inhibition of LPS-stimulated NO production (in words),[3],detectable levels of LPS neutralization
same,inhibition of zymosan-stimulated NO production (in words),[2],not inhibited
